Laboratory results: paper PMC4907692, “Engineering vanilloid-sensitivity into the rat TRPV2 channel” (eLife, 2016)

Tests used:
WT TRPV1 = biological target: T1, WT TRPV1 (Rattus norvegicus, UniProt O35433); assay: Two-electrode voltage-clamp in Xenopus oocytes, WT TRPV1; format: cell-based
T1 construct: expressed in transfected cells; host or cells: Xenopus oocytes (cRNA injection, pGEM-HE)
Text: (§1) To further investigate the putative vanilloid binding pocket in TRPV1, we inspected the cryo-EM structure of TRPV1, looking for residues that are located nearby to the putative RTx density (Figure 1B; regions/residues highlighted in yellow) and that differ between TRPV1 and TRPV2 channels (Figure 3—figure supplement 1; regions highlighted in magenta). […] To quantify the contribution of each of these residues to TRPV1 channel activation by RTx under our experimental conditions, we mutated each to the corresponding residue in TRPV2. We then expressed each construct in oocytes and used the two electrode voltage-clamp technique to study activation by RTx and by the non-specific TRPV channel activator 2-APB. We recorded time courses for channel activation by each agonist while stepping the membrane potential from −60 to +60 mV every 3 s from a holding potential of 0 mV using an external recording solution containing 100 mM KCl (internal K^+ concentration in a healthy oocyte is 100 mM) (Figure 3A, left). We also recorded current-voltage (I-V) relations by stepping over a wider range of voltages in the absence and presence of activators, or in the presence of ruthenium red (RR), a non-specific inhibitor of TRP channels (Figure 3A, right).
The WT rat TRPV1 and TRPV2 channels in the pcDNA3.1 vector were kindly provided by Dr. David Julius (UCSF) ([Caterina et al., 1997]; [Caterina et al., 1999]) and subcloned into the pGEM-HE vector ([Liman et al., 1992]). Mutations were introduced into rTRPV1 using a two-step PCR mutagenesis technique and the resulting constructs were verified by sequencing. All channel constructs were expressed in Xenopus oocytes and studied following 1–4 days incubation after cRNA injection (incubated at 17°C in 96 mM NaCl, 2 mM KCl, 5 mM HEPES, 1 mM MgCl2 and 1.8 mM CaCl2, 50 μg/ml gentamycin, pH 7.6 with NaOH) using the two-electrode voltage-clamp recording technique (OC-725C, Warner Instruments, Hamden, CT) with a 150 μl recording chamber. Data were filtered at 1–3 kHz and digitized at 20 kHz using pClamp software (Molecular Devices, Sunnyvale, CA). […]

[1] = biological target: T2, TRPV1 QM (S512F, M547L, T550L, E570Q) (Rattus norvegicus, UniProt O35433, E570Q/M547L/S512F/T550L); assay: Two-electrode voltage-clamp in Xenopus oocytes, TRPV1 QM; format: cell-based; conditions: 2 mM 2-APB
T2 construct: expressed in transfected cells; host or cells: Xenopus oocytes (cRNA injection)
Text: as §1, with “right). […]” for “right).”

WT TRPV2 = biological target: T3, WT TRPV2 (Rattus norvegicus, UniProt Q9WUD2); assay: Two-electrode voltage-clamp in Xenopus oocytes, WT TRPV2; format: cell-based; conditions: 4 mM 2-APB
T3 construct: expressed in transfected cells; host or cells: Xenopus oocytes (cRNA injection, pGEM-HE)
Text: as §1, with “right). […]” for “right).”

TRPV2 QM = biological target: T4, TRPV2 QM (Rattus norvegicus, UniProt Q9WUD2, F472S/L507M/L510T/Q530E); assay: Two-electrode voltage-clamp in Xenopus oocytes, TRPV2 QM; format: cell-based; conditions: 50 µM capsaicin
T4 construct: expressed in transfected cells; host or cells: Xenopus oocytes (cRNA injection)
T4 sequence (Q9WUD2 1-761 F472S/L507M/L510T/Q530E): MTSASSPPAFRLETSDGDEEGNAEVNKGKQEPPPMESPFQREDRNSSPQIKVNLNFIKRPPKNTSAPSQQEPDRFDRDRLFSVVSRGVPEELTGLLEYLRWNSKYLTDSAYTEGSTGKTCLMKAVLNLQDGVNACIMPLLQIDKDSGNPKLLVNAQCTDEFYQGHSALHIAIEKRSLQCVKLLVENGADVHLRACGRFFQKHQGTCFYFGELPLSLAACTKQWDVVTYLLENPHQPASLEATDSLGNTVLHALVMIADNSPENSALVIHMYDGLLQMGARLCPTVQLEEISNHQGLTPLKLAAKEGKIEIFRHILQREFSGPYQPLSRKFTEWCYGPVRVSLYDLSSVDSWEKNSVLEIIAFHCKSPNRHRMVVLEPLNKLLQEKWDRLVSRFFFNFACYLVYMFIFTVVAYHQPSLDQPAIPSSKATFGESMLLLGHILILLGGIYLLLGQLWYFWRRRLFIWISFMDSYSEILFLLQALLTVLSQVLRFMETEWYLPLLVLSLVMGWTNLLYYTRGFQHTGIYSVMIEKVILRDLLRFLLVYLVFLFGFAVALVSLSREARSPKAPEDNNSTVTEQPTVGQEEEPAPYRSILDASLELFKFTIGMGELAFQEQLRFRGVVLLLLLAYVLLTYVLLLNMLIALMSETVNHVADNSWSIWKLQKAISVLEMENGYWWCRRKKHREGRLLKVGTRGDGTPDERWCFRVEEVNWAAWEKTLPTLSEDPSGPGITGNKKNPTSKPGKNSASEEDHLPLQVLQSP
Text: as §1, with “right). […]” for “right).”

TRPV2 = system: TRPV2; parameters: method as in Caterina et al., 1999; conditions: ref Caterina et al., 1999; cited from earlier work
[2] = system: full-length 1D4-tagged TRPV1; assay: 3H-RTx binding to S. cerevisiae membranes containing 1D4-tagged TRPV1; parameters: species or system rat; conditions: membranes, RTx binding in the presence of DkTx vs control
Text: The polymodal activation of TRPV1 has been widely conceptualized using allosteric models wherein binding of activators (such as vanilloids, protons, DkTx or voltage) are allosterically coupled to opening of the pore ([Brauchi et al., 2004]; [Jara-Oseguera et al., 2016]; [Matta and Ahern, 2007]). The allosteric nature of these interactions has begun to be explored using electrophysiological measurements of channel function ([Jara-Oseguera et al., 2016]; [Yao et al., 2010]), but has thus far not been investigated biochemically. We therefore tested whether binding of DkTx can enhance the affinity of TRPV1 for RTx, which would be predicted by an allosteric model wherein the two activators promote opening by binding more tightly to the open state. For these experiments we used a 1D4-tagged TRPV1 construct where expression in S. cerevisiae was driven by a constitutive promoter and we performed binding assays on yeast membranes where the vanilloid would have free access to the channel protein (see Methods). Under these conditions, we measured a Kd for RTx binding to 1D4-tagged TRPV1 of 0.6 nM under control conditions, about ten fold higher affinity than what we measured in intact cells using GFP-tagged TRPV1. When we measured the concentration-dependence of RTx binding to 1D4-tagged TRPV1 in the presence of DkTx, we observed that the tarantula toxin enhanced the affinity for RTx by about 3-fold (Figure 2A). The effects of DkTx were concentration-dependent (Figure 2B) and were observed independent of whether the binding assay was performed at 37°C (our standard temperature) or at 30°C (Figure 2A).
The full-length TRPV1 and TRPV2 channels with 1D4 affinity tags (TETSQVAPA) on their C-termini were cloned into the YEpHIS vector and expressed in the BJ5457 strain of S. cerevisiae using the strong constitutively active PMA1 promoter, as previously described ([Moiseenkova-Bell et al., 2008]). After 48 hr of expression at 30°C in YPD media, cells were harvested by centrifugation and re-suspended in PBS buffer, supplemented with complete protease inhibitor cocktail (Roche, Indianapolis, IN) and 4-amidinophenylmethanesulfonyl fluoride hydrochloride (APMSF) (Sigma-Aldrich, St. Louis, MO). Cells were broken by passing through an Avestin homogenizer at the pressure of 35 kpsi, cell lysate was cleared by centrifugation at 8,000 g for 15 min and membranes were isolated by ultracentrifugation at 190,000 g for 1 hr. Membrane pellets were re-suspended in PBS buffer supplemented with protease inhibitors and 200 mM sucrose, flash-frozen in liquid nitrogen and stored at -70°C until RTx binding measurements.
S. cerevisiae cells overexpressing TRPV1 constructs to be used in ligand binding assays on intact cells (Figure 1E,F) were grown as for small scale expression trials. 24 hr after protein induction cells were spun down at 4000g, the supernatant was removed and the pellet resuspended in 1x PBS, normalizing OD600 to 75 for each sample, and aliquoted for storage at -80°C. ^3H-RTx binding assays on cells were performed at 37°C as previously described ([Feng et al., 2015]), but where non-specific binding of RTx was measured using cells expressing GFP alone. The binding of RTx to TRPV1 and TRPV2 in membranes (e.g. Figure 2A,B and 5C) was performed at 37°C unless otherwise stated using membranes prepared from large scale protein preparations of S. cerevisiae containing rat TRPV1 and TRPV2 with a 1D4 tag expressed using a constitutive promoter as in [Moiseenkova-Bell et al., 2008]. Data for binding of RTx to membranes was corrected for non-specific binding, determined using either excess non-radioactive ligand or heat inactivation of the protein, as previously described ([Feng et al., 2015]). The TRPV1-activating double-knot toxin (DkTx) was produced recombinantly, folded in vitro and purified as previously described ([Bae et al., 2012]). Yeast membranes were incubated with DkTx solution for 1 hr at 4°C with gentle agitation prior to undertaking RTx binding assays. […]

T1 sequence (O35433 whole entry): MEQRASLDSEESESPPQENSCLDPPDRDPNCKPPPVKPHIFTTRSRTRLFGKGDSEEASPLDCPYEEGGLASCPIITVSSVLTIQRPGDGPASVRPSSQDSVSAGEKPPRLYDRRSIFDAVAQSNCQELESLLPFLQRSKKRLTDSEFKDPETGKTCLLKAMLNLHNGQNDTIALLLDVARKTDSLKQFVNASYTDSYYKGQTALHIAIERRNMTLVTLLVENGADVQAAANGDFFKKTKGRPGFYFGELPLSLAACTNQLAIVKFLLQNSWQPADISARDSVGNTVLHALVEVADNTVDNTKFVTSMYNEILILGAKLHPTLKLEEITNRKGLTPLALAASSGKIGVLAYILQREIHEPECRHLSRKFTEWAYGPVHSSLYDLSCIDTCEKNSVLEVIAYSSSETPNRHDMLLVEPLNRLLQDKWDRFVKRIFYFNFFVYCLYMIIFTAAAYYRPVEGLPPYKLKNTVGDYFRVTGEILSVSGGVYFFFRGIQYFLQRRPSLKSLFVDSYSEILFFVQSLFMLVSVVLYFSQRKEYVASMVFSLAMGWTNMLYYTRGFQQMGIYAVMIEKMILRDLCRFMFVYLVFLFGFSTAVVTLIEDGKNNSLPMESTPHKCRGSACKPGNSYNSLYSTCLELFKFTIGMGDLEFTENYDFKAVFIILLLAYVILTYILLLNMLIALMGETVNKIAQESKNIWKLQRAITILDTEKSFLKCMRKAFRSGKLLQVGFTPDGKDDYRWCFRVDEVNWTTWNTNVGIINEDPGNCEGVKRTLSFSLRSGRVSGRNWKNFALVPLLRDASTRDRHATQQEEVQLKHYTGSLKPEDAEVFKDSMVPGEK
T3 sequence (Q9WUD2 whole entry): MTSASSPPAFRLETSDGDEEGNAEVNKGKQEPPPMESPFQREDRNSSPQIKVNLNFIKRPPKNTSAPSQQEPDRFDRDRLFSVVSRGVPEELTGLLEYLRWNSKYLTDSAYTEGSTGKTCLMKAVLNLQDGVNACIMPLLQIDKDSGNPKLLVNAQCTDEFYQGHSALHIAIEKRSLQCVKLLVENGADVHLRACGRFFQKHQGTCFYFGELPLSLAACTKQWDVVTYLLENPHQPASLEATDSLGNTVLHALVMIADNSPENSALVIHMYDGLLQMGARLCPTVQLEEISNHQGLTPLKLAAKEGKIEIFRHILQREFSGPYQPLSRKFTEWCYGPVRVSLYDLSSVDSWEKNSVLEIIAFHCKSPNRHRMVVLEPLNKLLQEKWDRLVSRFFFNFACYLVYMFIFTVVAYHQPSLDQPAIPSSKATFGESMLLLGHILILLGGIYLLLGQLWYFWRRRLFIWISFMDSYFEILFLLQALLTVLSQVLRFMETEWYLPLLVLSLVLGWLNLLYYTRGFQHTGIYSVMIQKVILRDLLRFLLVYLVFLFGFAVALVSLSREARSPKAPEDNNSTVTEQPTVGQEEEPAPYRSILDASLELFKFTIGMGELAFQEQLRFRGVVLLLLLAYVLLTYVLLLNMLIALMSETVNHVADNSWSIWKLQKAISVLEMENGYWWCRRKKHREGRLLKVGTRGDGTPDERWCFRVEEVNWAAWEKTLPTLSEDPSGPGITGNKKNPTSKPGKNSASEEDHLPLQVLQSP
T2 sequence (O35433 whole entry S512F/M547L/T550L/E570Q): as the sequence (O35433 whole entry) above, with S512F, M547L, T550L, E570Q counted along it

Molecule: NCCOB(c1ccccc1)c1ccccc1 [2-APB, 2-aminoethoxydiphenyl borate]
- channel activation by 2-APB (WT TRPV1; 2 mM 2-APB, +60 and -60 mV): reversible activation
- channel activation by 2-APB [1]: retaining sensitivity
- channel activation by 2-APB (WT TRPV2): could be activated

Molecule: N.N.N.N.N.N.N.N.N.N.N.N.N.N.[Cl-].[Cl-].[Cl-].[Cl-].[Cl-].[Cl-].[O-2].[O-2].[Ru+3].[Ru+3].[Ru+4] [RR, ruthenium red]
- inhibition of RTx-activated currents by RR (WT TRPV1; 50 µM RR after 100 nM RTx): blocked the RTx-activated currents

Molecule: COc1cc(CNC(=O)CCCC/C=C/C(C)C)ccc1O [capsaicin]
- channel activation by capsaicin (TRPV2 QM): remained insensitive
- sensitivity to capsaicin (TRPV2): insensitive to capsaicin

B1: double-knot toxin (protein, UniProt P0CH43 1-79, looked up)
Tau-theraphotoxin-Hs1a: DCAKEGEVCSWGKKCCDLDNFYCPMEFIPHCKKYKPYVPVTTNCAKEGEVCGWGSKCCHGLDCPLAFIPYCEKYRGRND
- enhancement of the affinity for RTx by DkTx [2]: about 3 fold
